# Source: patent US8906852B2 (MethylGene Inc., priority 2010, dated 2014)
# Molecular target: T1, VEGFR/KDR (Homo sapiens, UniProt P35968)
# T1 construct: made in house; host or cells: Sf9 cells (Spodoptera frugiperda), baculovirus
# Test: VEGFR/KDR kinase inhibition, DELFIA assay
# Assay type: biochemical
# Settings: ATP 0.6 uM (2x Km), enzyme 5 nM
# How it was run: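 Enzyme (5 nM) pre-incubated 4 min on ice with inhibitor and Mg-ATP (0.6 uM, 2× Km), then reacted 10-30 min at 30° C on immobilized poly(Glu4,Tyr). EDTA-quenched phosphotyrosine detected with Europium-labeled antibody by time-resolved fluorescence; IC50 from concentration series.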
# T1 sequence (P35968 806-1356): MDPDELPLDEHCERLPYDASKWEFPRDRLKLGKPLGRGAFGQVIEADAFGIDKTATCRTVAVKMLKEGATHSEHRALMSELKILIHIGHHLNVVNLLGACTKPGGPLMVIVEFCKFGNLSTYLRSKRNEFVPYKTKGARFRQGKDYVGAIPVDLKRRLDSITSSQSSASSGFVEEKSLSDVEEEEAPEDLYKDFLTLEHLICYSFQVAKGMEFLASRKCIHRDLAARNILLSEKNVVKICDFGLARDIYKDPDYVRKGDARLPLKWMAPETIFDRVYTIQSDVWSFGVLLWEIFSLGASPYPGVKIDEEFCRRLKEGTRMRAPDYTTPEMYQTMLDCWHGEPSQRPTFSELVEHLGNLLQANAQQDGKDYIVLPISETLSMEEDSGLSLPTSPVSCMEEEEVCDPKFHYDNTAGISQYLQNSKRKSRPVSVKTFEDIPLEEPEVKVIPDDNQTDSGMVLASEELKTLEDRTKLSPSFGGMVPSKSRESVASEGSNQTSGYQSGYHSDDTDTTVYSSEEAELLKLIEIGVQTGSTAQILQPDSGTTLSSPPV
row,SMILES,IC50
1,"COCCN(CCn1cnc(-c2cc3nccc(Oc4ccc(NC(=O)NC5CC5)cc4F)c3s2)c1)C(=O)CO [Compound 258, N-(2-(4-(7-(4-(3-cyclopropylureido)-2-fluorophenoxy)thieno[3,2-b]-pyridin-2-yl)-1H-imidazol-1-yl)ethyl)-2-hydroxy-N-(2-methoxyethyl)acetamide]",< 0.05 µM
2,"NC1CCN(Cc2ccc(-c3cc4nccc(Oc5ccc(NC(=O)NC6CC6)cc5F)c4s3)nc2)CC1 [Compound 343, 1-(4-(2-(5-((4-Aminopiperidin-1-yl)methyl)pyridin-2-yl)thieno[3,2-b]pyridin-7-yloxy)-3-fluorophenyl)-3-cyclopropylurea]",< 0.05 µM
3,"COCCN(Cc1ccc(-c2cc3nccc(Oc4ccc(NC(=O)NC5CC5)cc4F)c3s2)nc1)C(=O)[C@@H](N)C(C)(C)C [Compound 88, (S)-2-amino-N-((6-(7-(4-(3-cyclopropylureido)-2-fluorophenoxy)thieno[3,2-b]pyridin-2-yl)pyridin-3-yl)methyl)-N-(2-methoxyethyl)-3,3-dimethylbutanamide]",< 0.05 µM
4,"O=C(Nc1ccc(Oc2ccnc3cc(-c4ccc(C(=O)N5CCN(CCN6CCOCC6)CC5)cn4)sc23)c(F)c1)NC1CC1 [Compound 231, 1-cyclopropyl-3-(3-fluoro-4-(2-(5-(4-(2-morpholinoethyl)piperazine-1-carbonyl)pyridin-2-yl)thieno[3,2-b]pyridin-7-yloxy)phenyl)urea]",< 0.05 µM
5,CC(C)(C)OC(=O)NCC(=O)N1CCN(C(=O)Cn2cc(-c3cc4nccc(Oc5ccc(NC(=O)NC6CC6)cc5F)c4s3)nn2)CC1 [Compound 392],< 0.05 µM
6,CCNC(=O)NC1CCN(Cc2ccc(-c3cc4nccc(Oc5ccc(NC(=O)NC6CC6)cc5F)c4s3)nc2)CC1 [Compound 353],< 0.05 µM
7,"CN(C)[C@@H]1CCN(C(=O)c2ccc(-c3cc4nccc(Oc5ccc(NC(=O)NC6CC6)cc5F)c4s3)nc2)C1 [Compound 227, (R)-1-cyclopropyl-3-(4-(2-(5-(3-(dimethylamino)pyrrolidine-1-carbonyl)pyridin-2-yl)thieno[3,2-b]pyridin-7-yloxy)-3-fluorophenyl)urea]",< 0.05 µM
8,CS(=O)(=O)c1cccc(NC(=O)Nc2ccc(Oc3ccnc4cc(-c5ccc(CN6CCCC6=O)cn5)sc34)c(F)c2)c1 [Compound 105],< 0.05 µM
9,"O=C(Nc1ccccc1)Nc1ccc(Oc2ccnc3cc(C#CCN4CCOCC4)sc23)c(F)c1 [Compound 120, 1-(3-fluoro-4-(2-(3-morpholinoprop-1-ynyl)thieno[3,2-b]pyridin-7-yloxy)phenyl)-3-phenylurea]",0.1 to 0.25 µM
10,"CN(C)CCCc1ccc(NCc2ccc(-c3cc4nccc(Oc5ccc(NC(=O)NC6CC6)cc5F)c4s3)nc2)cc1 [Compound 339, 1-cyclopropyl-3-(4-(2-(5-((4-(3-(dimethylamino)propyl)phenylamino)methyl)pyridin-2-yl)thieno[3,2-b]pyridin-7-yloxy)-3-fluorophenyl)urea]",< 0.05 µM
11,"CCC(=O)N(CCOC)Cc1ccc(-c2cc3nccc(Oc4ccc(NC(=O)NC5CC5)cc4F)c3s2)nc1 [Compound 86, N-((6-(7-(4-(3-cyclopropylureido)-2-fluorophenoxy)thieno[3,2-b]pyridin-2-yl)pyridin-3-yl)methyl)-N-(2-methoxyethyl)propionamide]",< 0.05 µM
12,CCOC(=O)Cc1csc(NC(=O)Cn2cc(-c3cc4nccc(Oc5ccc(NC(=O)NC6CC6)cc5F)c4s3)nn2)n1 [Compound 375],< 0.05 µM
13,"O=C(Nc1ccc(Oc2ccnc3cc(-c4ccc(CNc5cccc(OCCN6CCOCC6)c5)cn4)sc23)c(F)c1)NC1CC1 [Compound 341, 1-cyclopropyl-3-(3-fluoro-4-(2-(5-((3-(2-morpholinoethoxy)phenylamino)methyl)pyridin-2-yl)thieno[3,2-b]pyridin-7-yloxy)phenyl)urea]",< 0.05 µM
14,"N#CCCN1CCN(Cc2ccc(-c3cc4nccc(Oc5ccc(NC(=O)NC6CC6)cc5F)c4s3)nc2)CC1 [Compound 57, 1-(4-(2-(5-((4-(2-cyanoethyl)piperazin-1-yl)methyl)pyridin-2-yl)thieno[3,2-b]-pyridin-7-yloxy)-3-fluorophcnyl)-3-cyclopropylurea]",< 0.05 µM
15,"O=C(Nc1ccc(Oc2ccnc3cc(-c4ccc(CN5CCN(CC(F)(F)F)CC5)cn4)sc23)c(F)c1)NC1CC1 [Compound 84, 1-cyclopropyl-3-(3-fluoro-4-(2-(5-((4-(2,2,2-trifluoroethyl)piperazin-1-yl)methyl)-pyridin-2-yl)thieno[3,2-b]pyridin-7-yloxy)phenyl)urea]",< 0.05 µM
16,"CN1CCN(C(=O)NC2CCN(Cc3ccc(-c4cc5nccc(Oc6ccc(NC(=O)NC7CC7)cc6F)c5s4)nc3)CC2)CC1 [Compound 357, N-(1-((6-(7-(4-(3-Cyclopropylureido)-2-fluorophenoxy)thieno[3,2-b]pyridin-2-yl)pyridin-3-yl)methyl)piperidin-4-yl)-4-methylpiperazine-1-carboxamide]",< 0.05 µM
17,O=C(Nc1ccc(Oc2ccnc3cc(-c4cn(CC(=O)N5CCCC5)nn4)sc23)c(F)c1)NC1CC1 [Compound 373],< 0.05 µM
18,"O=C(O)CCC1CCN(Cc2ccc(-c3cc4nccc(Oc5ccc(NC(=O)NC6CC6)cc5F)c4s3)nc2)CC1 [Compound 330, 3-(1-((6-(7-(4-(3-cyclopropylureido)-2-fluorophenoxy)thieno[3,2-b]pyridin-2-yl)pyridin-3-yl)methyl)piperidin-4-yl)propanoic acid]",< 0.05 µM

# Results, then the compound that gave them:
row,IC50,SMILES
1,< 0.05 µM,"C[C@H]1CN(Cc2ccc(-c3cc4nccc(Oc5ccc(NC(=O)NC6CC6)cc5F)c4s3)nc2)CCN1C(=O)CO [Compound 529, (S)-1-cyclopropyl-3-(3-fluoro-4-(2-(5-((4-(2-hydroxyacetyl)-3-methylpiperazin-1-yl)methyl)pyridin-2-yl)thieno[3,2-b]pyridin-7-yloxy)phenyl)urea]"
2,0.05 to 0.1 µM,"O=C(Nc1ccc(Oc2ccnc3cc(C(=O)N4CCC(C(=O)O)CC4)sc23)c(F)c1)NC1CC1 [Compound 465, 1-(7-(4-(3-cyclopropylureido)-2-fluorophenoxy)thieno[3,2-b]pyridine-2-carbonyl)piperidine-4-carboxylic acid]"
3,< 0.05 µM,CCNC(=O)N(C)C1CCN(C(=O)c2ccc(-c3cc4nccc(Oc5ccc(NC(=O)NC6CC6)cc5F)c4s3)nc2)CC1 [Compound 406]
4,0.05 to 0.1 µM,"CCNC(=O)N(CCOC)Cc1ccc(-c2cc3nccc(Oc4ccc(NC(=S)NC5CC5)cc4F)c3s2)nc1 [Compound 503, 1-((6-(7-(4-(3-cyclopropylthioureido)-2-fluorophenoxy)thieno[3,2-b]pyridin-2-yl)pyridin-3-yl)methyl)-3-ethyl-1-(2-methoxyethyl)urea]"
5,< 0.05 µM,"CC(C)(C)OC(=O)N[C@H]1CCN(Cc2ccc(-c3cc4nccc(Oc5ccc(NC(=O)NC6CC6)cc5F)c4s3)nc2)C1 [Compound 480, (S)-tert-butyl 1-((6-(7-(4-(3-cyclopropylureido)-2-fluorophenoxy)thieno[3,2-b]pyridin-2-yl)pyridin-3-yl)methyl)pyrrolidin-3-ylcarbamate]"
6,< 0.05 µM,"CCOC(=O)CC(N1CCN(Cc2ccc(-c3cc4nccc(Oc5ccc(NC(=O)NC6CC6)cc5F)c4s3)nc2)CC1)C(F)(F)F (centres unmarked) [Compound 509, ethyl 3-(4-((6-(7-(4-(3-cyclopropylureido)-2-fluorophenoxy)thieno[3,2-b]pyridin-2-yl)pyridin-3-yl)methyl)piperazin-1-yl)-4,4,4-trifluorobutanoate]"
7,< 0.05 µM,"O=C(Nc1ccc(Oc2ccnc3cc(-c4ccc(CN5CCC6(CC5)CCN(C(=O)CO)C6)cn4)sc23)c(F)c1)NC1CC1 [Compound 524, 1-cyclopropyl-3-(3-fluoro-4-(2-(5-((2-(2-hydroxyacetyl)-2,8-diazaspiro[4.5]decan-8-yl)methyl)pyridin-2-yl)thieno[3,2-b]pyridin-7-yloxy)phenyl)urea]"
8,< 0.05 µM,CC(C)(CN1CCN(Cc2ccc(-c3cc4nccc(Oc5ccc(NC(=O)NC6CC6)cc5F)c4s3)nc2)CC1)C(=O)O [Compound 575]
9,< 0.05 µM,"CC1(C)CN(Cc2ccc(-c3cc4nccc(Oc5ccc(NC(=O)NC6CC6)cc5F)c4s3)nc2)CCN1 [Compound 496, 1-cyclopropyl-3-(4-(2-(5-((3,3-dimethylpiperazin-1-yl)methyl)pyridin-2-yl)thieno[3,2-b]pyridin-7-yloxy)-3-fluorophenyl)urea]"
10,< 0.05 µM,"CCOC(=O)C1CCCN(Cc2ccc(-c3cc4nccc(Oc5ccc(NC(=O)NC6CC6)cc5F)c4s3)nc2)C1 (centres unmarked) [Compound 475, ethyl 1-((6-(7-(4-(3-cyclopropylureido)-2-fluorophenoxy)thieno[3,2-b]pyridin-2-yl)pyridino-yl)methyl)piperidine-3-carboxylate]"
11,< 0.05 µM,O=C(Nc1ccc(Oc2ccnc3cc(-c4ccc(CN5CCN(C(=O)[C@H](O)CO)CC5)cn4)sc23)c(F)c1)NC1CC1 [Compound 540]
12,< 0.05 µM,"O=C(CO)N[C@H]1CCN(Cc2ccc(-c3cc4nccc(Oc5ccc(NC(=O)NC6CC6)cc5F)c4s3)nc2)C1 [Compound 497, (S)-N-(1-((6-(7-(4-(3-cyclopropylureido)-2-fluorophenoxy)thieno[3,2-b]pyridin-2-yl)-pyridin-3-yl)methyl)pyrrolidin-3-yl)-2-hydroxyacetamide]"
13,< 0.05 µM,"CN1CCN(C(=O)C2CCCN(C(=O)c3cc4nccc(Oc5ccc(NC(=O)NC6CC6)cc5F)c4s3)C2)CC1 (centres unmarked) [Compound 473, 1-cyclopropyl-3-(3-fluoro-4-(2-(3-(4-methylpiperazine-1-carbonyl)piperidine-1-carbonyl)thieno[3,2-b]pyridin-7-yloxy)phenyl)urea]"
14,< 0.05 µM,"CN(C)CCNC(=O)C1CN(Cc2ccc(-c3cc4nccc(Oc5ccc(NC(=O)NC6CC6)cc5F)c4s3)nc2)C1 [Compound 490, 1-((6-(7-(4-(3-cyclopropylureido)-2-fluorophenoxy)thieno[3,2-b]pyridin-2-yl)pyridin-3-yl)methyl)-N-(2-(dimethylamino)ethyl)azetidine-3-carboxamide]"
